Reference: patent publication US7803381B2, “Retro-inverso gonadotropin-releasing hormone peptide and vaccine composition” (Shimoda Biotech (Pty) Ltd., priority 2002, dated 2010)
Several values for one entry are separate records, joined by “and”; a condition that tells them apart may be missing. Identical values can stand only once. Entries after “also recorded” stand apart in the source; their conditions may differ. Each block holds one compound with its values, some of them ahead of it. Non-standard residues stand in square brackets, D forms with d. Residues, ends and D or L forms follow the SMILES beside them. No end group written: not given here. pGlu = O=C1CC[C@@H](C(=O)O)N1

How the values were obtained:
[1] = system: purified rabbit anti-RI-GnRH antibodies; experiment: Inhibition immunoassay (ELISA): peptide displacement of anti-RI-GnRH antibodies from fixed RI-GnRH; format: binding; conditions: for inhibition by free peptide of anti-RI-GnRH antibody binding to fixed RI-GnRH: ELISA, increasing peptide concentrations
Protocol: (§1) Microtitre plates were coated with RI-GnRH peptide (5 μg/ml) in 100 mM Na2CO3 (pH=9.6) and incubated for one hour at 37° C. After several washes with PBS (pH=7.4) plates were saturated for one hour with 1% BSA in PBS supplemented with Tween 20 (0.1% wt/volume) at 37° C. Sera from immunised rabbits and mice at different dilutions (1:500 to 1:3200) were added to the plates and incubated for one hour at 37° C. […] Washed plates were reacted with 3,3′,5,5′-tetramethyl benzidine (TMB) and […] as substrate.
(§2) Nonspecific inhibition was determined with an unrelated L peptide, […](V9C), and an unrelated RI peptide ([…]. Various dilutions of anti-RI-GnRH antibodies were preincubated with increasing concentrations of peptide (3.9-1000 nM) for 1 h at 37° C. The percent inhibition of signal was calculated from the amount of anti-RI-GnRH antibodies that bound RI-GnRH in the presence of increasing peptide concentrations against the amount of anti-RI-GnRH antibodies that bound RI-GnRH in the absence of competing peptide.

[2] = target: T1, GnRH (Homo sapiens, UniProt P01148); experiment: Antiserum/antibody inhibition of GnRH stimulated IP accumulation in COS-1 cells transfected with human GnRH receptor; format: cell-based, mammalian
T1 construct: made in house; host or cells: chemical solid-phase synthesis (University of Cape Town); receptor expressed in transfected COS-1 cells
Protocol: (§3) The transfected COS-1 cells (2×10^5 cells/well) were incubated overnight in 0.5 ml Medium 199 (Life Technologies Inc.) with antibiotics and myo-[2-^3H] inositol (1 μCi/well, Amersham Pharmacia Biotech) as previously described. The labelled cells were incubated with various concentrations of GnRH-analogs for one hour at 37° C. in the presence of LiCl as described. Aspirating the medium and addition of 10 mM formic acid (1 ml/well) terminated the incubation. Inositol phosphates separated from the formic acid extract on DOWEX-1 ion exchange columns and eluted into scintillation liquid (Quicksafe, Zinsser Analytical, Frankfurt, Germany) and the radioactivity was counted. […] Serum from the same rabbits before immunisation was also tested. […] After one hour the incubation was terminated with formic acid and inositol phosphates were separated and counted as described. […] The mixture was added to labelled cells, and the inhibition of IP production was calculated. […] Purified anti-RI-GnRH antibodies were tested for their ability to discriminate among GnRH, [[…]]GnRH, and GnRH II. […] Stimulating with these concentrations [half-maximal effective concentrations (EC50)] in the absence of antibody produced similar levels of IP counts. […] The mixture was added to labelled cells and the inhibition of IP production calculated as described. IP assays were performed in duplicate and four-parameter nonlinear curve fitting (PRISM, GraphPad Software, In., San Diego, Calif.) was used to estimate the peptide concentrations required to stimulate half-maximal IP production (EC50). […] All kinetic analysis was performed with BiaEvaluation 3 (BIACORE) software, using the standard χ^2 statistic test. […] All statistical analyses were performed with StatView, using a standard correlation program.

[3] = system: RI-GnRH peptide; experiment: ELISA binding of purified anti-RI-GnRH antibody fractions to RI-GnRH; conditions: ELISA titre
Protocol: as §1

[4] = system: male BALB/c mice; format: in vivo, mouse
Protocol: Nine male BALB/c mice (Janvier, France), nine weeks of age, were immunised intraperitoneally (i.p.) with either 25 μg/mouse RI-GnRH conjugated with MAO (n=5) or saline buffer (n=4). The primary injections were given in CFA supplemented with 200 μg m-BSA. These were followed by two-booster injections in IFA and m-BSA at day 15 and 45 after primary injection. The mice were weighed and bled one week after each immunisation. On day 45, males injected with RI-GnRH conjugate or saline were placed with females of proven fertility and litters observed. The males were sacrificed 75 days after primary injection for histological examination.
as §1, §2
Male mice were sacrificed and the testes dissected. Testes were weighed and fixed in formalin/saline solution (12%) for routine histology. The fixed testes were dehydrated, sectioned (5 μm thick) and stained with haematoxylin and eosin.

[5] = target: T2, human GnRH receptor (Homo sapiens, UniProt P30968); experiment: GnRH analog-stimulated inositol phosphate (IP) accumulation in COS-1 cells transiently transfected with human GnRH receptor; format: cell-based
T2 construct: expressed in transfected cells; host or cells: COS-1 cells, transient transfection (DEAE-Dextran), vector pcDNA I/AMP
T2 sequence (P30968 1-328): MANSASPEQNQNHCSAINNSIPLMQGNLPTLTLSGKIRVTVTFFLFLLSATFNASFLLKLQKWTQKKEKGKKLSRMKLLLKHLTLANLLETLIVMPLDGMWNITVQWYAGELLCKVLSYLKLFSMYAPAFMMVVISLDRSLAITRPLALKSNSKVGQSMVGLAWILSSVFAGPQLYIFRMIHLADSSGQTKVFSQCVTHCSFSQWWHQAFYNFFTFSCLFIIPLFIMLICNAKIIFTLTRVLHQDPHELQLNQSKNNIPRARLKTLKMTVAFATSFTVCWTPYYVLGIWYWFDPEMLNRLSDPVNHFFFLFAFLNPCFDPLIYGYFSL
Protocol: COS-1 cells were cultured in Dulbecco's modified Eagle's medium/DMEM (Life Technologies, Inc., Paisley, Scotland), supplemented with 10% foetal calf serum (FCS, Delta bioproducts, Kempton Park, South Africa) in a 10% CO2 incubator at 37° C. Cells were harvested with 0.05% trypsin. For all transient transfections 2×10^5 cells/well were seeded into 12-well plates and cultured overnight in DMEM containing 10% FCS and antibiotics (2 mg/ml streptomycin sulphate, 4000 U/ml sodium benzyl penicillin). COS-1 cells were transiently transfected using the DEAE-Dextran method, as previously described.
The transfected COS-1 cells (2×10^5 cells/well) were incubated overnight in 0.5 ml Medium 199 (Life Technologies Inc.) with antibiotics and myo-[2-^3H] inositol (1 μCi/well, Amersham Pharmacia Biotech) as previously described. […] Aspirating the medium and addition of 10 mM formic acid (1 ml/well) terminated the incubation. Inositol phosphates separated from the formic acid extract on DOWEX-1 ion exchange columns and eluted into scintillation liquid (Quicksafe, Zinsser Analytical, Frankfurt, Germany) and the radioactivity was counted.
IP assays were performed in duplicate and four-parameter nonlinear curve fitting (PRISM, GraphPad Software, In., San Diego, Calif.) was used to estimate the peptide concentrations required to stimulate half-maximal IP production (EC50). […]

[6] = system: BALB/c mice; experiment: Second mice example: immunisation of BALB/c mice with unconjugated RI-GnRH coinjected with CpG, titre and fertility; format: in vivo, mouse; conditions: for Titre 1 (d 37): individual mice 1-6, without complete Freund's adjuvant
Protocol: In the second experiment, four week old BALB/c mice (3 of each sex) were immunised with 25 μg/mouse unconjugated RI-GnRH coinjected with CpG (50 μg/mouse) oligonucleotide and m-BSA. A control group (2 of each sex) received saline buffer together with 50 μg/mouse CpG oligonucleotide as adjuvant (Klinman, et al., 1999) supplemented with 200 μg m-BSA. All injections were given in 10% v/v IFA. Mice were immunised at days 1, 15 and 30. They were bled and mated with partners of proven fertility at day 37 after the initial immunisation.
as §1

[7] = system: rabbits; experiment: Rabbit immunisation with RI-GnRH conjugated with MAO; format: in vivo; conditions: 100 μg/rabbit conjugated with MAO, CFA then IFA boosters
Protocol: Two adult female rabbits (Harlan, Leicestershire, UK) were immunised with RI-GnRH (100 μg/rabbit) conjugated with MAO. The primary injections were given subcutaneously in complete Freund's adjuvant (CFA). These were followed by three booster injections (1 ml/rabbit) in incomplete Freund's adjuvant (IFA) at two week intervals. The last booster injection was given four weeks later using 200 μg free peptide together with 1 mg methylated-BSA (m-BSA). The rabbits were bled one week after each injection. Two experiments were performed with mice to test whether immunization with RI-GnRH would generate GnRH antibodies, and different methods of immunization with RI-GnRH were tested.
as §1

[8] = system: GnRH; experiment: Antiserum/antibody inhibition of GnRH stimulated IP accumulation in COS-1 cells transfected with human GnRH receptor; format: cell-based, mammalian; conditions: 5 nM antibody fraction; 0.3 nM GnRH, 1 nM [Gln^8]GnRH, 1 nM GnRH II
Protocol: as §3

Compound: VRTVEDGEC [V9C, unrelated L peptide]
- inhibition by free peptide of anti-RI-GnRH antibody binding to fixed RI-GnRH [1]: not significantly inhibited; also recorded: low inhibition

- fold suppression of EC50 of GnRH-stimulated IP accumulation ([2]; 5 nM antibody fraction): 4.4 fold
Compound: glycine
- affinity of antibody populations for RI-GnRH peptide [3]: higher affinity than those eluted with KSCN

- inhibition by free peptide of anti-RI-GnRH antibody binding to fixed RI-GnRH [1]: incrementally decreased
Compound: GPRLGYSWHEC (G[dP][dR][dL]G[dY][dS][dW][dH][dE][dC]; not fully specified) [RI-GnRH, retro-inverso GnRH peptide with additional C-terminal cysteine for conjugation]
- development of anti-RI-GnRH antibodies ([4]; 25 μg/mouse conjugated with MAO, i.p., CFA + m-BSA): All five immunised male mice developed anti-RI-GnRH antibodies
- testis histology ([4]; males sacrificed 75 days after primary injection): atrophied Leydig and Sertoli cells, less spermatogonia and primary spermatocytes, presence of very few spermatids and reduced diameters of the seminiferous tubules
- infertile immunised male mice ([4]; mated with normal females from day 45): Two of the group of five
- adverse side effects or changes in body weight ([4]; mouse, in vivo): no indication of adverse side effects or changes in body weight
- testis weight ([4]; mouse, in vivo): reduced testis weight
- effect of RI-GnRH peptide alone on IP accumulation / GnRH stimulated IP accumulation ([5]; data not shown, listed as RI-GnRH peptide): could not stimulate or inhibit; also recorded: did not stimulate or inhibit
- production of anti-RI-GnRH antibodies ([6]; 25 μg/mouse unconjugated RI-GnRH with CpG 50 μg/mouse, m-BSA, 10% IFA): produced anti-RI-GnRH antibodies, which cross-reacted with the native hormone
- mice infertile until day 220 ([6]; boosted at day 97): four mice stayed infertile
- infertile mice on day 120 ([6]; boosted at day 97, mated one week thereafter): Two mice were infertile
- Titre 1 (d 37) ([6]; female mice): 3.00E−05 and 1.30E−04 and 1.00E−02
- Titre 1 (d 37) ([6]; male mice): 3.00E−05 and 1.00E−03 and 5.00E−04
- fertility after pairing at day 37 ([6]; male and female mice paired with normal partners): All mice were infertile after pairing at day 37, except for one
- adverse side effects or changes in body weight ([6]; mouse, in vivo): no indication of adverse side effects or changes in body weight
- litters from further matings up to day 90 ([6]; mouse, in vivo): no litters
- anti-RI-GnRH antibody response [7]: high titre

- cross-reaction of eluted antibody fractions with GnRH ([1]; inhibition ELISA): cross-reacted most efficiently
- IC50 ([2]; 0.3 nM GnRH, read-out: antibody concentration inhibiting 50% of GnRH-stimulated IP accumulation): 1.7 nM
Compound: KSCN
- inhibition of GnRH (analog) stimulated IP production by eluted antibody fractions [8]: most effective

- inhibition by free peptide of anti-RI-GnRH antibody binding to fixed RI-GnRH [1]: cross-react less
- EC50 ([5]; absence of antibody, read-out: EC50 of ligand-stimulated IP accumulation): 1 nM
Compound: NC(=O)CNC(=O)[C@@H]1CCCN1C(=O)[C@H](Cc1ccc(O)cc1)NC(=O)[C@H](Cc1c[nH]c2ccccc12)NC(=O)CNC(=O)[C@H](Cc1c[nH]cn1)NC(=O)[C@H](CO)NC(=O)[C@H](Cc1c[nH]c2ccccc12)NC(=O)[C@H](Cc1c[nH]cn1)NC(=O)[C@@H]1CCC(=O)N1 [GnRH II, [His^5, Trp^7, Tyr^8]GnRH, reference compound] ([pGlu]HWSHGWYPG-NH2)

- inhibition by free peptide of anti-RI-GnRH antibody binding to fixed RI-GnRH [1]: could also inhibit
Compound: CC(C)C[C@H](NC(=O)CNC(=O)[C@H](Cc1ccc(O)cc1)NC(=O)[C@H](CO)NC(=O)[C@H](Cc1c[nH]c2ccccc12)NC(=O)[C@H](Cc1c[nH]cn1)NC(=O)[C@@H]1CCC(=O)N1)C(=O)N[C@@H](CCCNC(=N)N)C(=O)N1CCC[C@H]1C(=O)NCC(N)=O [GnRH]
